The values that follow come from patent US4247559A, “N-substituted maleimides in liquid concentrates” (Abbott Laboratories, priority 1979, dated 1981).

What all share (type): cell-based
Experiment [1] relates to A. niger and P. funiculosum. Nature of the experiment: antifungal test on agar plates, visual inspection of growth. Also noted: unit not given here. As to conditions: agar plates, 10,000 units each, 30° C. for two weeks. As for the experimental part: In a related test, the above biocide solutions are added to agar plates at various concentrations and the plates are then inoculated with 1 ml. of a broth containing 10,000 units each of A. niger and P. funiculosum. The plates are then incubated at 30° C. for two weeks, and growth of the fungi is visually inspected to establish the minimum inhibitory concentration (MIC).

For experiment [2], the system named is Aerobacter aerogenes, Pseudomonoas Sp., Bacillus subtilus and Bacillus megaterium. Briefly: antibacterial test in nutrient broth tubes, presence or absence of turbidity. The note with it: 48 hours at 37° C., subcultured and incubated 24 hours longer, challenge 1×10^6 colony-forming units each. Also noted: unit not given here. As for the experimental part:
(§1) The new compounds are dissolved in DMF at a concentration of 50 mg/ml. and diluted with water to the appropriate concentration to be added to a nutrient broth in test tubes. The challenge mixture contains 1×10^6 colony-forming units each of Aerobacter aerogenes, Pseudomonoas Sp., Bacillus subtilus and Bacillus megaterium. Following inoculation, the tubes are incubated 48 hours at 37° C., subcultured to fresh nutrient broth and incubated 24 hours longer. The results are recorded as presence or absence of turbidity, turbidity indicating growth of the inoculum due to inactivity of the biocide at the concentration used in the broth.

Experiment [3] has as its system most common industrial fungi and bacteria. Briefly: biocidal activity (summary statements on bacteria and fungi). As to conditions: conclusion from the table, in words. Here is the method:
as §1, with “broth. In a related test, the above biocide solutions are added to agar plates at various concentrations and the plates are then inoculated with 1 ml. of a broth containing 10,000 units each of A. niger and P. funiculosum. The plates are then incubated at 30° C. for two weeks, and growth of the fungi is visually inspected to establish the minimum inhibitory concentration (MIC).” for “broth.”

Consider `O=C1C=CC(=O)N1c1ccc(S(=O)(=O)C(I)I)cc1` [R= p-CHI2, N-[p-(diiodomethylsulfonyl)phenyl]maleimide], for which the “Antifungal MIC” value in experiment [1] was found to be 1000. The “Antibacterial MIC” value in experiment [2] is recorded as 1000.

`O=C1C=CC(=O)N1c1ccc(S(=O)(=O)C(Cl)(Cl)Cl)cc1` [R= CCL3, reference compound]: the “Antifungal MIC” value in experiment [1] is “inactive”. Further, in experiment [2], the “Antibacterial MIC” value is “inactive”. In experiment [3], the biocidal activity result is listed as “ineffective”.

As to `O=C1C=CC(=O)N1c1ccc(S(=O)(=O)C(Cl)Cl)cc1` [R= p-CHCl2, N-[p-(dichloromethylsulfonyl)phenyl]maleimide], in experiment [1], the “Antifungal MIC” value is given as 1000. Further, the “Antibacterial MIC” value in experiment [2] was 1000.

Regarding `O=C1C=CC(=O)N1c1ccc(S(=O)(=O)CCl)cc1` [R=p-CH2 Cl, N-[p-(chloromethylsulfonyl)phenyl]maleimide], the “Antifungal MIC” value in experiment [1] amounted to 1000. In experiment [2], the “Antibacterial MIC” value was 1000.

Consider `O=C1C=CC(=O)N1c1ccc(S(=O)(=O)CI)cc1` [R= p-CH2 I], for which the “Antifungal MIC” value in experiment [1] was found to be 100.
